Measured values reported in ChEMBL document CHEMBL3217667, “Extended side chain analogues of 8-aminoquinolines: Synthesis and evaluation of antiprotozoal, antimicrobial, -hematin inhibition, and cytotoxic activities” (Medchemcomm, 2011).
In brackets after ≈: the same amount, converted by molar mass. Activity calls are given as the source filed them. No cut-off for these calls is given here.

Columns and labels:
[1] = tested on: Mycobacterium intracellulare; assay: Antibacterial activity against Mycobacterium intracellulare up to 20 ug/ml; assay type: functional, organism-based
Plasmodium falciparum [2] = assay: Antimalarial activity against chloroquine-sensitive Plasmodium falciparum D6 by lactate dehydrogenase assay; assay type: functional, organism-based; conditions: Plasmodium falciparum, D6; read-out: IC50
[3] = Selectivity index, ratio of IC50 for African green monkey Vero cells to IC50 for chloroquine-sensitive Plasmodium falciparum D6; assay type: toxicity, cell-based; conditions: read-out: Ratio IC50
Plasmodium falciparum [4] = assay: Antimalarial activity against chloroquine-resistant Plasmodium falciparum W2 by lactate dehydrogenase assay; assay type: functional, organism-based; conditions: Plasmodium falciparum, W2; read-out: IC50
[5] = Selectivity index, ratio of IC50 for African green monkey Vero cells to IC50 for chloroquine-resistant Plasmodium falciparum W2; assay type: toxicity, cell-based; conditions: read-out: Ratio IC50
Vero = assay: Cytotoxicity against African green monkey Vero cells by neutral red uptake assay; assay type: cell-based; conditions: Chlorocebus sabaeus
SK-MEL = assay: Cytotoxicity against human SK-MEL cells by neutral red uptake assay; assay type: cell-based
KB = assay: Cytotoxicity against human KB cells by neutral red uptake assay; assay type: cell-based
BT-549 = assay: Cytotoxicity against human BT549 cells by neutral red uptake assay; assay type: cell-based
SK-OV-3 = assay: Cytotoxicity against human SKOV3 cells by neutral red uptake assay; assay type: cell-based
LLC-PK1 = assay: Cytotoxicity against pig LLC-PK1 cells by neutral red uptake assay; assay type: cell-based; conditions: Sus scrofa
[6] = Inhibition of beta-hematin formation after 16 hrs; assay type: physicochemical
Leishmania donovani = assay: Antileishmanial activity against Leishmania donovani promastigotes by Alamar Blue assay; assay type: functional, organism-based
Plasmodium berghei = assay: Antimalarial activity against Plasmodium berghei infected in mouse assessed as reduction in parasitemia at 100 mg/kg/day, po for 4 days measured up to day 14; assay type: functional
Staphylococcus aureus [7] = assay: Antibacterial activity against Staphylococcus aureus; assay type: functional, organism-based
Staphylococcus aureus [8] = assay: Antibacterial activity against methicillin-resistant Staphylococcus aureus; assay type: functional, organism-based
[9] = tested on: Mycobacterium intracellulare; assay: Antibacterial activity against Mycobacterium intracellulare; assay type: functional, organism-based
Cryptococcus neoformans = assay: Antifungal activity against Cryptococcus neoformans by broth microdilution assay; assay type: functional, organism-based
Pseudomonas aeruginosa = assay: Antibacterial activity against Pseudomonas aeruginosa; assay type: functional, organism-based
Escherichia coli = assay: Antibacterial activity against Escherichia coli; assay type: functional, organism-based
Candida albicans = assay: Antifungal activity against Candida albicans by broth microdilution assay; assay type: functional, organism-based
Nakaseomyces glabratus = assay: Antifungal activity against Candida glabrata by broth microdilution assay; assay type: functional, organism-based
Pichia kudriavzevii = assay: Antifungal activity against Candida krusei by broth microdilution assay; assay type: functional, organism-based
Aspergillus fumigatus = assay: Antifungal activity against Aspergillus fumigatus by broth microdilution assay; assay type: functional, organism-based

For `CCCCCOc1c(OC)cc(NC(C)CCCNC(C)CCCNC(C)CCCN)c2nccc(CC)c12.Cl` (stereo not drawn), the Activity [1] was “inactive”, the IC50 (Plasmodium falciparum [2]) was 0.57 µg/mL and the selectivity ratio [3] was over 41.7. For the same compound, the IC50 (Plasmodium falciparum [4]) was 0.48 µg/mL, the selectivity ratio [5] was over 49.5 and the IC50 (Vero) was over 23.8 µg/mL. It also gave an IC50 (SK-MEL) of over 23.8 µg/mL, an IC50 (KB) of over 23.8 µg/mL and an IC50 (BT-549) of over 23.8 µg/mL. For the same compound, the IC50 (SK-OV-3) was over 23.8 µg/mL, the IC50 (LLC-PK1) was over 23.8 µg/mL and the IC50 [6] was 20.8 µM. For the same compound, the IC50 (Leishmania donovani) was 3.5 µg/mL, the IC90 (Leishmania donovani) was 7 µg/mL and the Activity (Plasmodium berghei) was “inactive”. For the same compound, the IC50 (Staphylococcus aureus [7]) was 8.6 µg/mL, the MBC (Staphylococcus aureus [7]) was 20 µg/mL and the MIC (Staphylococcus aureus [7]) was 20 µg/mL. The IC50 (Staphylococcus aureus [8]) was 9.5 µg/mL, the MBC (Staphylococcus aureus [8]) was 20 µg/mL and the MIC (Staphylococcus aureus [8]) was 20 µg/mL. For the same compound, the IC50 [9] was 16.6 µg/mL, the MIC [9] was 20 µg/mL and the IC50 (Cryptococcus neoformans) was 5.5 µg/mL. For the same compound, the MFC (Cryptococcus neoformans) was 10 µg/mL, the MIC (Cryptococcus neoformans) was 10 µg/mL and the Activity (Pseudomonas aeruginosa) was “inactive”. The Activity (Escherichia coli) was “inactive”, the Activity (Candida albicans) was “inactive” and the Activity (Nakaseomyces glabratus) was “inactive”. For the same compound, the Activity (Pichia kudriavzevii) was “inactive” and the Activity (Aspergillus fumigatus) was “inactive”.
In the case of `CCCCCOc1c(OC)cc(NC(C)CCCNC(C)CCCN)c2nccc(CC)c12.Cl` (stereo not drawn), the Activity [1] is reported as “inactive”, the IC50 (Plasmodium falciparum [2]) is reported as 0.52 µg/mL and the selectivity ratio [3] is reported as over 45.7. It also gave an IC50 (Plasmodium falciparum [4]) of 0.18 µg/mL, a selectivity ratio [5] of over 132 and an IC50 (Vero) of over 23.8 µg/mL. For the same compound, the IC50 (SK-MEL) was over 23.8 µg/mL, the IC50 (KB) was over 23.8 µg/mL and the IC50 (BT-549) was over 23.8 µg/mL. For the same compound, the IC50 (SK-OV-3) was over 23.8 µg/mL, the IC50 (LLC-PK1) was over 23.8 µg/mL and the IC50 [6] was 9.6 µM. The IC50 (Leishmania donovani) was 3.7 µg/mL, the IC90 (Leishmania donovani) was 7 µg/mL and the Activity (Plasmodium berghei) was “inactive”. For the same compound, the IC50 (Staphylococcus aureus [7]) was 13.6 µg/mL, the MBC (Staphylococcus aureus [7]) was 20 µg/mL and the MIC (Staphylococcus aureus [7]) was 20 µg/mL. The IC50 (Staphylococcus aureus [8]) was 13.4 µg/mL, the MBC (Staphylococcus aureus [8]) was 20 µg/mL and the MIC (Staphylococcus aureus [8]) was 20 µg/mL. The IC50 [9] was over 20 µg/mL, the IC50 (Cryptococcus neoformans) was 5.8 µg/mL and the MFC (Cryptococcus neoformans) was 10 µg/mL. For the same compound, the MIC (Cryptococcus neoformans) was 10 µg/mL, the Activity (Pseudomonas aeruginosa) was “inactive” and the Activity (Escherichia coli) was “inactive”. For the same compound, the Activity (Candida albicans) was “inactive”, the Activity (Nakaseomyces glabratus) was “inactive” and the Activity (Pichia kudriavzevii) was “inactive”. For the same compound, the Activity (Aspergillus fumigatus) was “inactive”.
In the case of `N=C(N)c1ccc(OCCCCCOc2ccc(C(=N)N)cc2)cc1` [PENTAMIDINE], the IC90 (Leishmania donovani) is reported as 3.8 µg/mL (≈ 11.2 µM).
Compound `C[C@@H]1[C@H](O)[C@@H](C)/C=C/C=C/C=C/C=C/C=C/C=C/C=C/[C@H](O[C@@H]2O[C@H](C)[C@@H](O)[C@H](N)[C@@H]2O)C[C@@H]2O[C@](O)(C[C@@H](O)C[C@@H](O)[C@H](O)CC[C@@H](O)C[C@@H](O)CC(=O)O[C@H]1C)C[C@H](O)[C@H]2C(=O)O` [AMPHOTERICIN B] has an IC90 (Leishmania donovani) of 0.35 µg/mL (≈ 0.379 µM), an MFC (Cryptococcus neoformans) of 1.5 µg/mL (≈ 1.62 µM) and an MFC (Nakaseomyces glabratus) of 0.625 µg/mL (≈ 0.676 µM). It also gave an MIC (Nakaseomyces glabratus) of 0.31 µg/mL (≈ 0.335 µM).
With `CCN(CC)CCCC(C)Nc1ccnc2cc(Cl)ccc12` (stereo not drawn) [CHLOROQUINE] the IC50 [6] was 80 µM.
In the case of `CCCCCOc1c(OC)cc(NC(C)CCCNC(C)CCCNC(C)CCCNC(C)CCCN)c2nccc(CC)c12.Cl` (stereo not drawn), the Activity [1] is reported as “inactive”, the IC50 (Plasmodium falciparum [2]) is reported as 0.44 µg/mL and the selectivity ratio [3] is reported as over 54. It also gave an IC50 (Plasmodium falciparum [4]) of 0.42 µg/mL, a selectivity ratio [5] of over 56.6 and an IC50 (Vero) of over 23.8 µg/mL. For the same compound, the IC50 (SK-MEL) was over 23.8 µg/mL, the IC50 (KB) was over 23.8 µg/mL and the IC50 (BT-549) was over 23.8 µg/mL. It also gave an IC50 (SK-OV-3) of over 23.8 µg/mL, an IC50 (LLC-PK1) of over 23.8 µg/mL and an IC50 [6] of 11.2 µM. For the same compound, the IC50 (Leishmania donovani) was 3.1 µg/mL, the IC90 (Leishmania donovani) was 7 µg/mL and the Activity (Plasmodium berghei) was “inactive”. For the same compound, the IC50 (Staphylococcus aureus [7]) was 9.8 µg/mL, the MBC (Staphylococcus aureus [7]) was 20 µg/mL and the MIC (Staphylococcus aureus [7]) was 20 µg/mL. It also gave an IC50 (Staphylococcus aureus [8]) of 11 µg/mL, an MBC (Staphylococcus aureus [8]) of 20 µg/mL and an MIC (Staphylococcus aureus [8]) of 20 µg/mL. For the same compound, the IC50 [9] was 17.8 µg/mL, the MIC [9] was 20 µg/mL and the IC50 (Cryptococcus neoformans) was 5.6 µg/mL. For the same compound, the MFC (Cryptococcus neoformans) was 10 µg/mL, the MIC (Cryptococcus neoformans) was 10 µg/mL and the Activity (Pseudomonas aeruginosa) was “inactive”. For the same compound, the Activity (Escherichia coli) was “inactive”, the Activity (Candida albicans) was “inactive” and the Activity (Nakaseomyces glabratus) was “inactive”. The Activity (Pichia kudriavzevii) was “inactive” and the Activity (Aspergillus fumigatus) was “inactive”.
With `C[C@@H]1CC[C@H]2[C@@H](C)C(=O)O[C@@H]3O[C@@]4(C)CC[C@@H]1[C@]32OO4` [ARTEMISININ] the selectivity ratio [3] was 1560 and the selectivity ratio [5] was 2640.
